From ChEMBL document CHEMBL1146777, “Interaction with the S1 beta-pocket of urokinase: 8-heterocycle substituted and 6,8-disubstituted 2-naphthamidine urokinase inhibitors” (Bioorg Med Chem Lett, 2004) come the findings set out here.

Test [1] concerns the target Urokinase-type plasminogen activator (Homo sapiens, UniProt P00749).
Description: Binding affinity towards Urokinase-type plasminogen activator (urokinase)
The next test addresses Serine protease 1 (Homo sapiens, UniProt P07477). Put plainly: Binding affinity against trypsin.
For the next test, the target named is Prothrombin (Homo sapiens, UniProt P00734). Kind of test: Binding affinity against thrombin.
In test [2] the target is Tissue-type plasminogen activator (Homo sapiens, UniProt P00750). Kind of test: Binding affinity towards tissue type plasminogen activator.
In a further test the target is Plasminogen (Homo sapiens, UniProt P00747). Kind of test: Binding affinity against plasmin.
Test [3] is described as follows: Binding affinity against trypsin.

Where only a bound is given, the exact number is not on record here.

Sequence of Plasminogen (P00747 97-580 limits assumed): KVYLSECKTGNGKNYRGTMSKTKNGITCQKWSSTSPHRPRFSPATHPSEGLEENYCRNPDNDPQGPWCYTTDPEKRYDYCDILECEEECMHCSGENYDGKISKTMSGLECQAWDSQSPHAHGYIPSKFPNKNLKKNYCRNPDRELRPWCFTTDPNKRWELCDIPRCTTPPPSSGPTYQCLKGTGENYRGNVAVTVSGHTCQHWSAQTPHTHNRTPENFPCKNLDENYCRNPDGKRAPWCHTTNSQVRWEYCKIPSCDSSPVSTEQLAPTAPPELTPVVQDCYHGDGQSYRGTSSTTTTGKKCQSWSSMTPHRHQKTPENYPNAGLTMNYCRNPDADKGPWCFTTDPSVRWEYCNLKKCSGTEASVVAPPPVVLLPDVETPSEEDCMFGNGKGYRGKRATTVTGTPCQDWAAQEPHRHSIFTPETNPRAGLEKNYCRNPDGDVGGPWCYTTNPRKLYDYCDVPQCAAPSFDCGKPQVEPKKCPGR
Sequence of Plasminogen (P00747 581-810 limits assumed): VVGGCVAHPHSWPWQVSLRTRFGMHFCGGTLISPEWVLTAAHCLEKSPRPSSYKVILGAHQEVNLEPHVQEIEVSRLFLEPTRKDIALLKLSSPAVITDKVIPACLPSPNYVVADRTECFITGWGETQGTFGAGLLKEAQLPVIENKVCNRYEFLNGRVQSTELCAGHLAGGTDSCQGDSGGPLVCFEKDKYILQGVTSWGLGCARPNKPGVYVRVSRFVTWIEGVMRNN
Sequence of Tissue-type plasminogen activator (P00750 whole entry): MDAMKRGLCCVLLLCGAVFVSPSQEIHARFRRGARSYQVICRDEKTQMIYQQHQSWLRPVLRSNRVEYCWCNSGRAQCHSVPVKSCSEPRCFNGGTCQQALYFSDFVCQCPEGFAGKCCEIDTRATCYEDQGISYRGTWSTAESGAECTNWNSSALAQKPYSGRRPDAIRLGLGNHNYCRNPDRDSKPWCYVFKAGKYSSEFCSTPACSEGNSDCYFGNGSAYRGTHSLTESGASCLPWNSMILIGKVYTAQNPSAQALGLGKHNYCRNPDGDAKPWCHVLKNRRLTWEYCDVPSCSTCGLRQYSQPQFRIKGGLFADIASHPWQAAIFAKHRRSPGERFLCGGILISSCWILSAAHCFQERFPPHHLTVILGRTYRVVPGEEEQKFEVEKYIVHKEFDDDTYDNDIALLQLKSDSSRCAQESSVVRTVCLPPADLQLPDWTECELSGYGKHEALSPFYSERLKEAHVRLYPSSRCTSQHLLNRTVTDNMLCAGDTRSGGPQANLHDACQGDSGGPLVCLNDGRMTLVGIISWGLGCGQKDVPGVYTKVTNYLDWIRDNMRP
Sequence of Serine protease 1 (P07477 whole entry): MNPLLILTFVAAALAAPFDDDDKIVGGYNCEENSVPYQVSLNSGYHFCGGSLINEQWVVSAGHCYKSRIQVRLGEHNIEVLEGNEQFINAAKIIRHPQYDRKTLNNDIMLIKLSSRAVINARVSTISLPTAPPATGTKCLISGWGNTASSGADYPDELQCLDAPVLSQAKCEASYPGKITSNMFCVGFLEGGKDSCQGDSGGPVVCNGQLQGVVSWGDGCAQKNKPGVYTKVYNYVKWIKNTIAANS

For orientation: Ki means the dissociation constant of the complex between target and ligand, obtained from inhibition or displacement. A high value points to a looser hold on the target. In turn, `COc1ccc2ccc(C(=N)N)cc2c1-c1cnn(C)c1` came in with a Ki in test [1] of 4600 nM.
Turning to `N=C(N)c1ccc2cccc(Nc3ncccn3)c2c1`, the inhibition constant Ki on Serine protease 1 was 1700 nM; at Prothrombin it was 3200 nM; in test [2], 24000 nM; on Plasminogen, 3800 nM.
The matching figures for `N=C(N)c1ccc2cc(C(=O)Nc3ccc(CN)cc3)cc(Nc3ncccn3)c2c1`: 20 nM, 940 nM, 680 nM and 150 nM.
For `CCSc1cc(-c2cc(C(=O)Nc3ccccc3)cc3ccc(C(=N)N)cc23)co1`, the Ki on Serine protease 1 was 11 nM; at Prothrombin, 120 nM; in test [2] it was 3300 nM; at Plasminogen, 53 nM; in test [1], 40 nM.
`[H]/N=C(/N)c1ccc2cc(C(=O)Nc3ccccc3)cc(Nc3ncccn3)c2c1`: the Ki at Serine protease 1 was found to be 40 nM; on Prothrombin, 170 nM; in test [2], 810 nM; on Plasminogen, 90 nM; in test [1], 2 nM.
Consider `COc1ccc2ccc(C(=N)N)cc2c1-c1ccoc1`, for which the Ki was 1200 nM on Serine protease 1, 1300 nM on Prothrombin, 18000 nM in test [2] and 9400 nM at Plasminogen.
`N=C(N)c1ccc2cc(C(=O)Nc3ccccc3)ccc2c1` showed a Ki in test [3] of 330 nM.
Take `N=C(N)c1ccc2ccccc2c1`: the inhibition constant Ki in test [2] is greater than 100000 nM; in test [3], 7800 nM.
For the compound `N=C(N)c1ccc2cc(C(=O)Nc3ccccc3)cc(C3CCOC3)c2c1` (stereo unspecified), the Ki was 30 nM on Serine protease 1; 360 nM on Prothrombin; 870 nM in test [2]; 400 nM at Plasminogen; 106 nM in test [1].
As for `N=C(N)c1ccc2cc(C(=O)Nc3ccccc3)cc(-c3ccoc3)c2c1`, the Ki was determined as 45 nM on Serine protease 1; 130 nM on Prothrombin; 180 nM in test [2]; 320 nM on Plasminogen; 91 nM in test [1].
In the case of `N=C(N)c1ccc2cccc(N)c2c1`, the inhibition constant Ki on Serine protease 1 stood at 200 nM; on Prothrombin it was 5200 nM; in test [2], 27000 nM; on Plasminogen, 6600 nM.
As to `CCS(=O)(=O)c1cc(-c2cc(C(=O)Nc3cccc(OC4CCCC4)c3)cc3ccc(C(=N)N)cc23)co1`, the inhibitory constant (Ki) on Serine protease 1 was 3 nM; at Prothrombin, 610 nM; in test [2], 1600 nM; on Plasminogen, 38 nM; in test [1], 2.1 nM.
As to `COc1ccc2ccc(C(=N)N)cc2c1C1CCOC1` (stereo unspecified), the inhibitory constant (Ki) at Serine protease 1 was determined as 320 nM; on Prothrombin, 450 nM; in test [2], 7400 nM; on Plasminogen, 6000 nM.
In the same order, the values of `CCS(=O)(=O)c1cc(-c2cc(C(=O)Nc3ccccc3)cc3ccc(C(=N)N)cc23)co1` are 3.5 nM, 290 nM, 8300 nM and 56 nM.
The matching figures for `COc1ccc2ccc(C(=N)N)cc2c1-c1cnn(S(C)(=O)=O)c1`: 2700 nM, 7100 nM, greater than 100000 nM and 8500 nM.
As to `CC(C)Oc1cccc(NC(=O)c2cc(C3CCOC3)c3cc(C(=N)N)ccc3c2)c1` (stereo unspecified), the Ki on Serine protease 1 was determined as 12 nM; at Prothrombin, 1100 nM; in test [2], 130 nM; at Plasminogen it was 190 nM.
